Experiments:
[1] = molecular target: T1, SMARCA2-HiBiT HeLa cells (protein which is expressed from the SMARCA2 gene) (Homo sapiens, UniProt P51531); experiment: SMARCA2 degradation assay (HiBiT-fusion HeLa cell line, 24 h, luminescence); format: cell-based
T1 construct: protein which is expressed from the SMARCA2 and SMARCA4 genes; host or cells: HeLa (SMARCA2-HiBiT engineered line)
Method in brief: (§1)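 SMARCA2- or SMARCA4-HiBiT HeLa cells seeded overnight at 37° C, then given compound as a 10-point dilution (typically 10 μM to 300 pM) for 24 h at 37° C. Protein level read by HiBiT lytic detection luminescence; DC50 from dose-response curves; degradation also scored at 1 μM.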

[2] = molecular target: T2, SMARCA4-HiBiT HeLa cells (protein which is expressed from the SMARCA4 gene) (Homo sapiens, UniProt P51532); experiment: SMARCA4 degradation assay (HiBiT-fusion HeLa cell line, 24 h, luminescence); format: cell-based
T2 construct: protein which is expressed from the SMARCA2 and SMARCA4 genes; host or cells: HeLa (SMARCA4-HiBiT engineered line)
T2 sequence (P51532 whole entry, the tested form may be a part): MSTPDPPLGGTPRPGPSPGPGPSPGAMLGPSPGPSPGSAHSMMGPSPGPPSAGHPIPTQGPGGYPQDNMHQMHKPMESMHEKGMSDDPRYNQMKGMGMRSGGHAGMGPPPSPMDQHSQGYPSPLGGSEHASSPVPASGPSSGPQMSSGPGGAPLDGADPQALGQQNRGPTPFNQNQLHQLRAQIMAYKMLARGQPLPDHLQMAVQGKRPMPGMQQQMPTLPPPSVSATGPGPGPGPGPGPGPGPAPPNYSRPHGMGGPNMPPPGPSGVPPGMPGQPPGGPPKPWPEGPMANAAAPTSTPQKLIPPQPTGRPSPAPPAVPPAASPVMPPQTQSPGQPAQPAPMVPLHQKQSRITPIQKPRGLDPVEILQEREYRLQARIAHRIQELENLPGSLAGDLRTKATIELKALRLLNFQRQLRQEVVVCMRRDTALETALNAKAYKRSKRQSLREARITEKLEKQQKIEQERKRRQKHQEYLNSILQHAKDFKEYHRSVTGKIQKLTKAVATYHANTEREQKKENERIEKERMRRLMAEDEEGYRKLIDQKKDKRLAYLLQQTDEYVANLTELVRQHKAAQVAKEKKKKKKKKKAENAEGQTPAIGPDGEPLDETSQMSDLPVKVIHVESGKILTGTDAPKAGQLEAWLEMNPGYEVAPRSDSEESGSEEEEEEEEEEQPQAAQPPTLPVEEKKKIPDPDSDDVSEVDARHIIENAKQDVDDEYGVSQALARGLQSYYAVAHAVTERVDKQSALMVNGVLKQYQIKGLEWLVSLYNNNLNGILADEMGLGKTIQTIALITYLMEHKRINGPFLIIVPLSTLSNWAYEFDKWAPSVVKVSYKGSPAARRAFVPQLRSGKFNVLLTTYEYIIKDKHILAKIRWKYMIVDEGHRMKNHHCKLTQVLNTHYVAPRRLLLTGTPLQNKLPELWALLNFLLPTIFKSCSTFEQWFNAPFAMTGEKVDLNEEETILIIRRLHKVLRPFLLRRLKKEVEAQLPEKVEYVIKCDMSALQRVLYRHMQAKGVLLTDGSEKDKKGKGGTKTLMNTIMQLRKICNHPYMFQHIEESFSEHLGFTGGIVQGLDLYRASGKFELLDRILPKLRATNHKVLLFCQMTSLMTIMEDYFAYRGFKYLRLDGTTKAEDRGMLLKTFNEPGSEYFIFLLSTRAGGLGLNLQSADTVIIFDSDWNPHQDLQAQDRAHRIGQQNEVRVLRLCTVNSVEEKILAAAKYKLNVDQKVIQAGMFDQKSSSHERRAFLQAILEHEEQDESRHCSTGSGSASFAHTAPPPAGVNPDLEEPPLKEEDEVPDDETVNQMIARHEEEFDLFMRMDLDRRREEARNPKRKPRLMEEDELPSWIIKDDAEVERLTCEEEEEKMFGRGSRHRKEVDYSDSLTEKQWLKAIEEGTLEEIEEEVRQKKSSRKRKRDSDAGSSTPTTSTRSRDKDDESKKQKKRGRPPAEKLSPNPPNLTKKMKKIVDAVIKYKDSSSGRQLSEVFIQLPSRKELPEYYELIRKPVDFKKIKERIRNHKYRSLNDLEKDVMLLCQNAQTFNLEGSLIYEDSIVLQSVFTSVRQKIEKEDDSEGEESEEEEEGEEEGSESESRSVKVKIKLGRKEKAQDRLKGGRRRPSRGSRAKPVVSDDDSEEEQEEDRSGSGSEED
Method in brief: as §1

T1 sequence (P51531 whole entry, the tested form may be a part): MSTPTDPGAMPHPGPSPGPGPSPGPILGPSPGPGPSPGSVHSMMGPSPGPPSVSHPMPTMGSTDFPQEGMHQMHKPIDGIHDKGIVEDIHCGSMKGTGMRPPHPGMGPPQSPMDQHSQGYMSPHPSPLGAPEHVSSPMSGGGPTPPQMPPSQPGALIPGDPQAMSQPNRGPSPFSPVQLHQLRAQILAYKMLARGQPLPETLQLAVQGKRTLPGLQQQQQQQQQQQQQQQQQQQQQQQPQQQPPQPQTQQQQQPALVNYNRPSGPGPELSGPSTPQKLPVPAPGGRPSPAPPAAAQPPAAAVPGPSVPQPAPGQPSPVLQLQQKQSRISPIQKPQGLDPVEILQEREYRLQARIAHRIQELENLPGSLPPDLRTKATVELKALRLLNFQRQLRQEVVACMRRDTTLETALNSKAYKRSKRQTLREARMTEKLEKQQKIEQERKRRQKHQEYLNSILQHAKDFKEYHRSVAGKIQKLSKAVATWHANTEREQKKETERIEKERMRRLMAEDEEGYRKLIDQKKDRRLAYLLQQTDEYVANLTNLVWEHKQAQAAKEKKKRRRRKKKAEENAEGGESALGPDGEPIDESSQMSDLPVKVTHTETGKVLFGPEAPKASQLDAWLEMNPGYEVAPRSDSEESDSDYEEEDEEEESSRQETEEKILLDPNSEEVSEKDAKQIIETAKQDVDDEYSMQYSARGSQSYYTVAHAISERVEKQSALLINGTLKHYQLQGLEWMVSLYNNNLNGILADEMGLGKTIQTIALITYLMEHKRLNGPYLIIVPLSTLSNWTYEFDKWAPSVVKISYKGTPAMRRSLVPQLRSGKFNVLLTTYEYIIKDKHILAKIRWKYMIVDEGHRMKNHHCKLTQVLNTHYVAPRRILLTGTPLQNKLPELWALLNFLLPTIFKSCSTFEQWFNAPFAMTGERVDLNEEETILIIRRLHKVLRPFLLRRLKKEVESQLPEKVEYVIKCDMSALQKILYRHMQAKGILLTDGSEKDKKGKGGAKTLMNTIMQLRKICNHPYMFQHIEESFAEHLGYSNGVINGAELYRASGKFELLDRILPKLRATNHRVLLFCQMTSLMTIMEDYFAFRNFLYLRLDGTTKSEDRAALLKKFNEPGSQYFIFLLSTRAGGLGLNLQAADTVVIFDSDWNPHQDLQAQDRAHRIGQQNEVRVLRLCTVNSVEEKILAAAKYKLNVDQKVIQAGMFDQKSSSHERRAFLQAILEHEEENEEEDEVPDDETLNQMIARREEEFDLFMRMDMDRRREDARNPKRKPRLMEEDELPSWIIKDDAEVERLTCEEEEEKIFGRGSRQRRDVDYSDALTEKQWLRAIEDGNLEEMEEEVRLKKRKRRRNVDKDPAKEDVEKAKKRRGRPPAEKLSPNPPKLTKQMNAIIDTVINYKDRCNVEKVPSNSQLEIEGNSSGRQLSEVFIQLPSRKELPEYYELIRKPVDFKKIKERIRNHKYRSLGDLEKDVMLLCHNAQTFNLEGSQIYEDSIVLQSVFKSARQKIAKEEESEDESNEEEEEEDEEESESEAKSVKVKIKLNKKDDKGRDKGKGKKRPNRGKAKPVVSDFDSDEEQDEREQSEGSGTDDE

| DC50 [1] | SMARCA2 % Degradation @ 1 μM [1] | DC50 [2] | inhibition at 1 µM [2] | SMILES |
| --- | --- | --- | --- | --- |
| 50 to 500 nM | ++ (++=30-70%) | 50 to 500 nM | 30 to 70% | Nc1nnc(-c2ccccc2O)cc1N1CC2CN(c3ccnc(C#CCNC(=O)c4cc5ncccn5n4)n3)CC2C1 (stereo not drawn) [Compound P-41, N-(3-(4-(5-(3-amino-6-(2-hydroxyphenyl)pyridazin-4-yl)hexahydropyrrolo[3,4-c]pyrrol-2(1H)-yl)pyrimidin-2-yl)prop-2-yn-1-yl)pyrazolo[1,5-a]pyrimidine-2-carboxamide] |
| 50 to 500 nM | ++ (++=30-70%) | 50 to 500 nM | 30 to 70% | Nc1nnc(-c2ccccc2O)cc1N1CCC2(CCN(c3ccnc(C#CCNC(=O)c4cc5ncccn5n4)n3)CC2)CC1 [Compound P-42, N-(3-(4-(9-(3-amino-6-(2-hydroxyphenyl)pyridazin-4-yl)-3,9-diazaspiro[5.5]undecan-3-yl)pyrimidin-2-yl)prop-2-yn-1-yl)pyrazolo[1,5-a]pyrimidine-2-carboxamide] |
| 500 to 5000 nM | ++ (++=30-70%) | 50 to 500 nM | 30 to 70% | Nc1nnc(-c2ccccc2O)cc1N1CC2CN(c3ccnc(C#CCNC(=O)c4cc5ncccn5n4)n3)C2C1 (stereo not drawn) [Compound P-43, N-(3-(4-(3-(3-amino-6-(2-hydroxyphenyl)pyridazin-4-yl)-3,6-diazabicyclo[3.2.0]heptan-6-yl)pyrimidin-2-yl)prop-2-yn-1-yl)pyrazolo[1,5-a]pyrimidine-2-carboxamide] |
| 500 to 5000 nM | ++ (++=30-70%) | 500 to 5000 nM | 30 to 70% | Nc1nnc(-c2ccccc2O)cc1N1CCN(c2ccnc(C#CCNC(=O)c3cc4ncccn4n3)n2)CC(F)C1 (stereo not drawn) [Compound P-44, N-(3-(4-(4-(3-amino-6-(2-hydroxyphenyl)pyridazin-4-yl)-6-fluoro-1,4-diazepan-1-yl)pyrimidin-2-yl)prop-2-yn-1-yl)pyrazolo[1,5-a]pyrimidine-2-carboxamide] |
| 500 to 5000 nM | + (+=<30%) | 500 to 5000 nM | < 30% | Nc1nnc(-c2ccccc2O)cc1N1CC2CN(c3ccnc(C#CCNC(=O)c4cc5ncccn5n4)n3)CC21 (stereo not drawn) [Compound P-45, N-(3-(4-(6-(3-amino-6-(2-hydroxyphenyl)pyridazin-4-yl)-3,6-diazabicyclo[3.2.0]heptan-3-yl)pyrimidin-2-yl)prop-2-yn-1-yl)pyrazolo[1,5-a]pyrimidine-2-carboxamide] |
| 50 to 500 nM | +++ (+++=>70%) | 50 to 500 nM | > 70% | CC1CCN(c2cc(-c3ccccc3O)nnc2N)CCN1c1ccnc(C#CCNC(=O)c2cc3ncccn3n2)n1 (stereo not drawn) [Compound P-46, N-(3-(4-(4-(3-amino-6-(2-hydroxyphenyl)pyridazin-4-yl)-7-methyl-1,4-diazepan-1-yl)pyrimidin-2-yl)prop-2-yn-1-yl)pyrazolo[1,5-a]pyrimidine-2-carboxamide] |
| 500 to 5000 nM | + (+=<30%) | 500 to 5000 nM | < 30% | Nc1nnc(-c2ccccc2O)cc1N1CC[C@@H]2[C@H]1CN2c1ccnc(C#CCNC(=O)c2cc3ncccn3n2)n1 [Compound P-47, N-(3-(4-((1R,5R)-2-(3-amino-6-(2-hydroxyphenyl)pyridazin-4-yl)-2,6-diazabicyclo[3.2.0]heptan-6-yl)pyrimidin-2-yl)prop-2-yn-1-yl)pyrazolo[1,5-a]pyrimidine-2-carboxamide] |
| 50 to 500 nM | ++ (++=30-70%) | 50 to 500 nM | 30 to 70% | C[C@H]1CN(c2ccnc(C#CCNC(=O)c3cc4ncccn4n3)n2)CCN1c1cc(-c2ccccc2O)nnc1N [Compound P-48, (S)-N-(3-(4-(4-(3-amino-6-(2-hydroxyphenyl)pyridazin-4-yl)-3-methylpiperazin-1-yl)pyrimidin-2-yl)prop-2-yn-1-yl)pyrazolo[1,5-a]pyrimidine-2-carboxamide] |
| > 5000 nM | + (+=<30%) | 500 to 5000 nM | < 30% | C[C@@H]1CN(c2ccnc(C#CCNC(=O)c3cc4ncccn4n3)n2)CCN1c1cc(-c2ccccc2O)nnc1N [Compound P-49, (R)-N-(3-(4-(4-(3-amino-6-(2-hydroxyphenyl)pyridazin-4-yl)-3-methylpiperazin-1-yl)pyrimidin-2-yl)prop-2-yn-1-yl)pyrazolo[1,5-a]pyrimidine-2-carboxamide] |
| < 50 nM | ++ (++=30-70%) | < 50 nM | 30 to 70% | C[C@@H]1CN(c2cc(-c3ccccc3O)nnc2N)CCN1c1ccnc(C#CCNC(=O)c2cc3ncccn3n2)n1 [Compound P-50, (R)-N-(3-(4-(4-(3-amino-6-(2-hydroxyphenyl)pyridazin-4-yl)-2-methylpiperazin-1-yl)pyrimidin-2-yl)prop-2-yn-1-yl)pyrazolo[1,5-a]pyrimidine-2-carboxamide] |
| 50 to 500 nM | ++ (++=30-70%) | 50 to 500 nM | 30 to 70% | CCC1CN(c2ccnc(C#CCNC(=O)c3cc4ncccn4n3)n2)CCN1c1cc(-c2ccccc2O)nnc1N (stereo not drawn) [Compound P-51, N-(3-(4-(4-(3-amino-6-(2-hydroxyphenyl)pyridazin-4-yl)-3-ethylpiperazin-1-yl)pyrimidin-2-yl)prop-2-yn-1-yl)pyrazolo[1,5-a]pyrimidine-2-carboxamide] |
| 50 to 500 nM | ++ (++=30-70%) | 50 to 500 nM | 30 to 70% | Nc1nnc(-c2ccccc2O)cc1N1CCN(c2ccnc(C#CCNC(=O)c3cc4ccc(F)cc4o3)n2)CC1 [Compound P-52, N-(3-(4-(4-(3-amino-6-(2-hydroxyphenyl)pyridazin-4-yl)piperazin-1-yl)pyrimidin-2-yl)prop-2-yn-1-yl)-6-fluorobenzofuran-2-carboxamide] |
| 50 to 500 nM | ++ (++=30-70%) | 50 to 500 nM | 30 to 70% | Nc1nnc(-c2ccccc2O)cc1N1CCN(c2ccnc(C#CCNC(=O)c3noc4ccccc34)n2)CC1 [Compound P-54, N-(3-(4-(4-(3-amino-6-(2-hydroxyphenyl)pyridazin-4-yl)piperazin-1-yl)pyrimidin-2-yl)prop-2-yn-1-yl)benzo[d]isoxazole-3-carboxamide] |
| 50 to 500 nM | ++ (++=30-70%) | 50 to 500 nM | 30 to 70% | Nc1nnc(-c2ccccc2O)cc1N1CCN(c2ccnc(C#CCNC(=O)c3coc4ccccc34)n2)CC1 [Compound P-55, N-(3-(4-(4-(3-amino-6-(2-hydroxyphenyl)pyridazin-4-yl)piperazin-1-yl)pyrimidin-2-yl)prop-2-yn-1-yl)benzofuran-3-carboxamide] |
| 50 to 500 nM | ++ (++=30-70%) | 50 to 500 nM | 30 to 70% | Nc1nnc(-c2ccccc2O)cc1N1CCN(c2ccnc(C#CCNC(=O)c3ccncc3)n2)CC1 [Compound P-56, N-(3-(4-(4-(3-amino-6-(2-hydroxyphenyl)pyridazin-4-yl)piperazin-1-yl)pyrimidin-2-yl)prop-2-yn-1-yl)isonicotinamide] |

From patent US20260265238A1, “COMPOUNDS AND PHARMACEUTICAL COMPOSITIONS THAT DEGRADE SWI/SNF-RELATED MATRIX-ASSOCIATED ACTIN-DEPENDENT REGULATOR OF CHROMATIN SUBFAMILY A” (Plexium, Inc., priority 2023, published 2026)
